Reference: ChEMBL document CHEMBL5291721, “A preclinical secondary pharmacology resource illuminates target-adverse drug reaction associations of marketed drugs” (Nat Commun, 2023)

Legend:
Adenosine receptor A3 = target: T1, Adenosine receptor A3 (Homo sapiens, UniProt P0DMS8)
T1 sequence (P0DMS8 whole entry): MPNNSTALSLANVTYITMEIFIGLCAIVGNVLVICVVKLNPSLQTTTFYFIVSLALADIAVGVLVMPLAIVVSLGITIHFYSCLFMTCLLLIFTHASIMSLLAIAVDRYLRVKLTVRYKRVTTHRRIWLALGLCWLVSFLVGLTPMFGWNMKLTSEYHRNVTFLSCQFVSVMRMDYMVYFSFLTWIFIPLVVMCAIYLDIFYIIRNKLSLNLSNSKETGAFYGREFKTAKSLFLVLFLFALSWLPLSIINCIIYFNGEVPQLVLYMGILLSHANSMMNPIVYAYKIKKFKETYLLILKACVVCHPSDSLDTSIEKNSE

[1] = target: Voltage-dependent L-type calcium channel subunit alpha-1C (Rattus norvegicus, UniProt P22002); assay type: functional
[2] = target: Muscarinic acetylcholine receptor M3 (Homo sapiens, UniProt P20309)
Muscarinic acetylcholine receptor M3, sequence (P20309 whole entry): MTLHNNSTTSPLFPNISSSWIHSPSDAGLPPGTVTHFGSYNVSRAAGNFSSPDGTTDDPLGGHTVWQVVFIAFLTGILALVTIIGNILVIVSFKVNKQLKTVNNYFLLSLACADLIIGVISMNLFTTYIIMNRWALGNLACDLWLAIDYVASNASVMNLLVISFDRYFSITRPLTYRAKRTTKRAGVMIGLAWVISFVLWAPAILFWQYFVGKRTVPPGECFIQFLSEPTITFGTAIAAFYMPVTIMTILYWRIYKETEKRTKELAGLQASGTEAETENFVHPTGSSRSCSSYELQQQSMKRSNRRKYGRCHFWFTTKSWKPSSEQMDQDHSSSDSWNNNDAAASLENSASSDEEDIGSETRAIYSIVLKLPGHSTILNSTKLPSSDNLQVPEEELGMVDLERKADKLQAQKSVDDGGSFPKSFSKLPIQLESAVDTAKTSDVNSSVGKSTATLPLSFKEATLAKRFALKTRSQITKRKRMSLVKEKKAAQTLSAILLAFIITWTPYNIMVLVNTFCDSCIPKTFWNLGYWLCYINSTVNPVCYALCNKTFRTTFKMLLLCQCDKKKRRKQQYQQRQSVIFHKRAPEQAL

[3] = target: Neuronal acetylcholine receptor subunit alpha-4 (Homo sapiens, UniProt P43681)
Neuronal acetylcholine receptor subunit alpha-4, sequence (P43681 whole entry): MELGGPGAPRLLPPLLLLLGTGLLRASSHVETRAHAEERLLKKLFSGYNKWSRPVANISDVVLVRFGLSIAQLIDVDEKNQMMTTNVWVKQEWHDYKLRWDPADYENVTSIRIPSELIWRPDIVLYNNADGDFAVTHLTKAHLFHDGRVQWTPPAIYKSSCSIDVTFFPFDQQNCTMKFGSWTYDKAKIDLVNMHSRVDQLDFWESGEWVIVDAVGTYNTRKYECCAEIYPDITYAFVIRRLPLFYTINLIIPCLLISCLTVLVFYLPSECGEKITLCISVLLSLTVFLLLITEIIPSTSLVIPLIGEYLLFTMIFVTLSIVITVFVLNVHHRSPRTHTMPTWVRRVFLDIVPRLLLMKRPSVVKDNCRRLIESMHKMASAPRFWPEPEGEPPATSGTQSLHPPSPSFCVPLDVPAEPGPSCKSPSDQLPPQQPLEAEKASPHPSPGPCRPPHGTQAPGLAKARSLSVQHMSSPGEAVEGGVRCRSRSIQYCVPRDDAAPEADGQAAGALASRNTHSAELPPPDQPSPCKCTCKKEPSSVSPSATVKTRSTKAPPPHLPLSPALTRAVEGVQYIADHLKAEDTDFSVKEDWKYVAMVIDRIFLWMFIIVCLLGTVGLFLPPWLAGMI

[4] = target: Gamma-aminobutyric acid receptor subunit alpha-1 (Rattus norvegicus, UniProt P62813); assay type: functional
Gamma-aminobutyric acid receptor subunit alpha-1, sequence (P62813 whole entry): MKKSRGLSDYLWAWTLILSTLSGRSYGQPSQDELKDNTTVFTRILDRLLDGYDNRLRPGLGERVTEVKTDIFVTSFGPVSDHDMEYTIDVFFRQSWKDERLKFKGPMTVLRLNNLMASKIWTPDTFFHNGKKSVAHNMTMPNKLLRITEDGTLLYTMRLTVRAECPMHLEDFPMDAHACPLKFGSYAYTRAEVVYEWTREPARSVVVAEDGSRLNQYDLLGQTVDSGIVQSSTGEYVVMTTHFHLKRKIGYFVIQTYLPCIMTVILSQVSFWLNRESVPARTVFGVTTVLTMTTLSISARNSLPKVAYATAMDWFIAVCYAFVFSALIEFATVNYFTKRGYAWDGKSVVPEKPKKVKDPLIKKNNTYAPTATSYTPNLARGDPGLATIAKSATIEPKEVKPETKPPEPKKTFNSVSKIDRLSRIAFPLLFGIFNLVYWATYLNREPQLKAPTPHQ

[5] = target: T2, 5-hydroxytryptamine receptor 1A (Homo sapiens, UniProt P08908); assay type: functional, cell-based
T2 sequence (P08908 whole entry): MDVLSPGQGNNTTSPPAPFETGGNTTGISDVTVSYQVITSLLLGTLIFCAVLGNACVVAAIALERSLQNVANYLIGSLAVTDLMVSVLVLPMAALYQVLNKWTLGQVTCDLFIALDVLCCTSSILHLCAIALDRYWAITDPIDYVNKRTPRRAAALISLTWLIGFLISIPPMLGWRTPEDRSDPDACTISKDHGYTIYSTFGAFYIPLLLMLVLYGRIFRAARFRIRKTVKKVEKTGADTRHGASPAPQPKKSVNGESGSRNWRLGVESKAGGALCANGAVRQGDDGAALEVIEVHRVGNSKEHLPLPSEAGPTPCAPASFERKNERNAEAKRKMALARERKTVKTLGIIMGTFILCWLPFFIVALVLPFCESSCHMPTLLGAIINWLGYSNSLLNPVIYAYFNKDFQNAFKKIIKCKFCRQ

[6] = target: Voltage-gated inwardly rectifying potassium channel KCNH2 (Homo sapiens, UniProt Q12809); assay type: functional
Voltage-gated inwardly rectifying potassium channel KCNH2, sequence (Q12809 whole entry): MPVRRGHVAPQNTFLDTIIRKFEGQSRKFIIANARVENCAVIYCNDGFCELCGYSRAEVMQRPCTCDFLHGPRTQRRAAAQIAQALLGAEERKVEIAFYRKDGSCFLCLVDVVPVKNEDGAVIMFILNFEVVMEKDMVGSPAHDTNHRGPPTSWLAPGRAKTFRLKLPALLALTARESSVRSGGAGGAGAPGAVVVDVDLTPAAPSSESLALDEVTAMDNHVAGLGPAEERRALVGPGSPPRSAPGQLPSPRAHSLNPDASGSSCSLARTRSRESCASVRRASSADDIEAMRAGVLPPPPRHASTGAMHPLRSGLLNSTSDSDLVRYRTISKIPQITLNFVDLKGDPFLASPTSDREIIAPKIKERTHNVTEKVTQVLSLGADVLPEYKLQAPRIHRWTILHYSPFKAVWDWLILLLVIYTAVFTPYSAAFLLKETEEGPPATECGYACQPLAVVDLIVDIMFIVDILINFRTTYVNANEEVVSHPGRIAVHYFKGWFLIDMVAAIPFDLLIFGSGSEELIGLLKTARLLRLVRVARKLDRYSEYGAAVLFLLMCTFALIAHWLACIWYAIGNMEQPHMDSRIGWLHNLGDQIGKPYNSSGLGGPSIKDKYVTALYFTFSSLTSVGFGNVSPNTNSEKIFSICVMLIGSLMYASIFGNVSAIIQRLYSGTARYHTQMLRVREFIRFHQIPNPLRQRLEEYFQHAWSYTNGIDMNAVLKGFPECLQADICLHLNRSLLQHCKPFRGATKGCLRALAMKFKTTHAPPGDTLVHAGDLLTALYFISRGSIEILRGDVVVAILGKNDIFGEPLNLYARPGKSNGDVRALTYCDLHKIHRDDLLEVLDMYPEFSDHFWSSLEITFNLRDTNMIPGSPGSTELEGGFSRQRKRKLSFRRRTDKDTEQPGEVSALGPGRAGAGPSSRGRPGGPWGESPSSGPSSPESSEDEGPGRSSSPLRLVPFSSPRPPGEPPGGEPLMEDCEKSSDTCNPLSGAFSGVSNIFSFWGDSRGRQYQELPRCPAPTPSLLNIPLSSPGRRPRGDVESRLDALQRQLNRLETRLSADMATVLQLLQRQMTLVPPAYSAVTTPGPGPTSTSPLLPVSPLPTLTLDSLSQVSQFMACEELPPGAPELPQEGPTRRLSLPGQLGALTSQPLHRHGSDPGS

[7] = target: Kappa-type opioid receptor (Homo sapiens, UniProt P41145)
Kappa-type opioid receptor, sequence (P41145 whole entry): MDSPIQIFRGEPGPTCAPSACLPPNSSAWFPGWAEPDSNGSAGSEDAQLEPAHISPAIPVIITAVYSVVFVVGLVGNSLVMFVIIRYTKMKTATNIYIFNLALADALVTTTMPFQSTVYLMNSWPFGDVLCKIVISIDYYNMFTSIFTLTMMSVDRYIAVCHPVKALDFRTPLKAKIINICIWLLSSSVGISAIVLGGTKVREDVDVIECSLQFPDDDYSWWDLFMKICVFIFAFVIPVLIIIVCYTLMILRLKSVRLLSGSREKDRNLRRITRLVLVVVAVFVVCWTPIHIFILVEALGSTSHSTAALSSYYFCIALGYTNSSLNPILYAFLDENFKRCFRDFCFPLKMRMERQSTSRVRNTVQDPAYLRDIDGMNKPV

Mu-type opioid receptor = Mu-type opioid receptor (Homo sapiens, UniProt P35372); assay: biochemical; assay type: functional
Mu-type opioid receptor, sequence (P35372 whole entry): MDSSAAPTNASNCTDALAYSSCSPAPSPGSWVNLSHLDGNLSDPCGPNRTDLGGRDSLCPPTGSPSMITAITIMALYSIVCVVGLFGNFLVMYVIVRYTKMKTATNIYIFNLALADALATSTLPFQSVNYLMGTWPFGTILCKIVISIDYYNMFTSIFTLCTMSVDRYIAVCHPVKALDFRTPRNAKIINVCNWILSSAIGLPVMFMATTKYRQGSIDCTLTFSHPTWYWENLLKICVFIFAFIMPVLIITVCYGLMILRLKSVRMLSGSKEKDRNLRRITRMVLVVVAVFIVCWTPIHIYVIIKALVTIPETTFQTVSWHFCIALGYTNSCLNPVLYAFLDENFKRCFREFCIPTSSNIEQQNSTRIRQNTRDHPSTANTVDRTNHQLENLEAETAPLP

[8] = target: 3',5'-cyclic-AMP phosphodiesterase 4D (Homo sapiens, UniProt Q08499); assay type: functional
3',5'-cyclic-AMP phosphodiesterase 4D, sequence (Q08499 whole entry): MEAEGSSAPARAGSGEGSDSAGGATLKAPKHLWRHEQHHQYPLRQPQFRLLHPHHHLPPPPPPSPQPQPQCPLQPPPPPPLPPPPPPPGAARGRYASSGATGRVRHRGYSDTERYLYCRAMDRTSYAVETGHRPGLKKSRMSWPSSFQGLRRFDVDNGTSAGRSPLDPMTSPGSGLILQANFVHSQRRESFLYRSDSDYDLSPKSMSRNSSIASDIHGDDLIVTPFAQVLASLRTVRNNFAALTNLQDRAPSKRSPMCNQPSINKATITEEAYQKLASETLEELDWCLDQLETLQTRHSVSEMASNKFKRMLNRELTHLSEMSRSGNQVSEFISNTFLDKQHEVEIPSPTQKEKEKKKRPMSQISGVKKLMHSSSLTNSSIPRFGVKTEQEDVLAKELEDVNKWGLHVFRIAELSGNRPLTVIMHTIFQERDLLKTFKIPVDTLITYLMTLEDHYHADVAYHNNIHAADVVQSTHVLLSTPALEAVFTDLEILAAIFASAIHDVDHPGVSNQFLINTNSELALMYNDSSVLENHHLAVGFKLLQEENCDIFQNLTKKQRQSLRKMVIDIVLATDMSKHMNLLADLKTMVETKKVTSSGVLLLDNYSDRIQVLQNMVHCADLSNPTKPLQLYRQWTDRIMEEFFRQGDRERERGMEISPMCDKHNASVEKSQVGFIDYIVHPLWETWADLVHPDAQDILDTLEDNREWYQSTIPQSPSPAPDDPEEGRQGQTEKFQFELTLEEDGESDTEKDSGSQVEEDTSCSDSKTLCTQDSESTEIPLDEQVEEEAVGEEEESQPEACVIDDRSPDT

Progesterone receptor = target: T3, Progesterone receptor (Homo sapiens, UniProt P06401); assay type: functional
T3 sequence (P06401 whole entry): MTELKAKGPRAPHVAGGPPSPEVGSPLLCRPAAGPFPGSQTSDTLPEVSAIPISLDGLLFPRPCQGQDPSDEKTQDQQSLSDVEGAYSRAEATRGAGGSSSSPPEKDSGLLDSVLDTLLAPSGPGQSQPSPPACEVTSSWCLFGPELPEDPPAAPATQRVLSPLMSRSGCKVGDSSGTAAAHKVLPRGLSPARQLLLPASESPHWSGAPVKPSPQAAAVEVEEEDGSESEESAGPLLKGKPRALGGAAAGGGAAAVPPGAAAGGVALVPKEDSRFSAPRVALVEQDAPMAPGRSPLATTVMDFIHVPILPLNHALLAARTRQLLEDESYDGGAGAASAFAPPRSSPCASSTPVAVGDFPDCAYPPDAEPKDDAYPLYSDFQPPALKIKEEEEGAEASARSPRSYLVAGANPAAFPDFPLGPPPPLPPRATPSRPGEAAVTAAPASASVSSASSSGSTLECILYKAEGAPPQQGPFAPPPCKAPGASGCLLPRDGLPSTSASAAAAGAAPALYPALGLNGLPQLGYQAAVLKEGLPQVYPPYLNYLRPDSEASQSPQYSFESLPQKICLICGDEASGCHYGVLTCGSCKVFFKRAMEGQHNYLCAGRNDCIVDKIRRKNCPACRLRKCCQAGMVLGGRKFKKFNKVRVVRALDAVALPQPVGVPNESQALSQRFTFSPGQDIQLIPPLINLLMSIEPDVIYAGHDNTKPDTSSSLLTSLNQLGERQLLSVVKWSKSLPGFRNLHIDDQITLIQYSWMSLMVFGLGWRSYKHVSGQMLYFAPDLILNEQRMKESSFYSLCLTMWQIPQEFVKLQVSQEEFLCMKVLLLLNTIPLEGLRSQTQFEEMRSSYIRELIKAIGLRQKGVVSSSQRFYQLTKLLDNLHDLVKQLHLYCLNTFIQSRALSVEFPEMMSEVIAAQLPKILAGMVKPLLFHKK

[9] = target: cGMP-inhibited 3',5'-cyclic phosphodiesterase 3A (Homo sapiens, UniProt Q14432); assay type: functional
[10] = target: T4, Alpha-1A adrenergic receptor (Homo sapiens, UniProt P35348); assay type: functional, cell-based
T4 sequence (P35348 whole entry): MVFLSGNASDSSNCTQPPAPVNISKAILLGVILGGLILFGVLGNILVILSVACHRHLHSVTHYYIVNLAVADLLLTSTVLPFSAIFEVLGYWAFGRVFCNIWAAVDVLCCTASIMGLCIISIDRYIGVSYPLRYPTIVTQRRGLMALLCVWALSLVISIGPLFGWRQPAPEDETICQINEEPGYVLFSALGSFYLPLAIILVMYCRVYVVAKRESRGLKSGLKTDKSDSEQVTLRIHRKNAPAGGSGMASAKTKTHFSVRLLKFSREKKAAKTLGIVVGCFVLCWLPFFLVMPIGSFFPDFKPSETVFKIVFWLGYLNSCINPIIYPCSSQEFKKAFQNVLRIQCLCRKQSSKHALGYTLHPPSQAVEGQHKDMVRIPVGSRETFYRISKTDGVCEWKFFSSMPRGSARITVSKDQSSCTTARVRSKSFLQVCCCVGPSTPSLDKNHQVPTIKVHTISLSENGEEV
Also: assay procedure not described here.

| AC50 (Adenosine receptor A3) [µM] | AC50 [1] [µM] | AC50 [2] [µM] | AC50 [3] [µM] | AC50 [4] [µM] | AC50 [5] [µM] | AC50 [7] [µM] | AC50 (Mu-type opioid receptor) [µM] | AC50 [8] [µM] | AC50 (Progesterone receptor) [µM] | AC50 [9] [µM] | AC50 [10] [µM] | Structure (SMILES) | AC50 [6] [µM] |
| --- | --- | --- | --- | --- | --- | --- | --- | --- | --- | --- | --- | --- | --- |
| > 30 | > 30 | > 30 | > 30 | > 30 | > 30 | 21 | > 30 | > 30 | > 30 | > 30 | > 30 | CC(=O)SC[C@@H](C)C(=O)N1CCC[C@H]1C(=O)N[C@@H](Cc1ccccc1)C(=O)O | > 30 |
| > 30 | > 30 | > 30 | > 30 | > 30 | > 30 | > 30 | > 30 | > 30 | > 30 | > 30 |  | C#CCOc1ccc(N)cc1C(=O)NCCCC [PARSALMIDE] | > 30 |
| > 30 | > 30 | > 30 | > 30 | > 30 | > 30 | > 30 | > 30 | 22 | > 30 | 25 | > 30 | CC1=C(C)C(=O)C(C(CCCCCC(=O)O)c2ccccc2)=C(C)C1=O (centres undefined) [SERATRODAST] | > 30 |
| 12 | > 30 | > 30 | > 30 | > 30 | 27 | > 30 | > 30 | > 30 | > 30 | > 30 | > 30 | C=C1/C(=C\C=C2/CCC[C@]3(C)[C@@H]([C@H](C)/C=C/[C@@H](O)C4CC4)CC[C@@H]23)C[C@@H](O)C[C@@H]1O [CALCIPOTRIENE] | > 30 |
| > 30 | > 30 | > 30 | > 30 | > 30 | > 30 | > 30 | > 30 | > 30 | > 30 | > 30 | > 30 | CCN(CC)C(=O)Nc1ccc(OCC(O)CNC(C)(C)C)c(C(C)=O)c1 (centres undefined) [CELIPROLOL] | 17 |
| > 30 | > 30 | > 30 | > 30 | > 30 | > 30 | > 30 | > 30 | > 30 | > 30 | > 30 | > 30 | O=C(O)c1ccccc1Nc1cc(Cl)ccc1C(=O)O [LOBENZARIT] | > 30 |
| > 30 | > 30 | > 30 | > 30 | > 30 | > 30 | > 30 | > 30 | > 30 | > 30 | > 30 | 3.5 | C=C[C@@]1(C)CC(=O)[C@]2(O)[C@@]3(C)[C@@H](O)CCC(C)(C)[C@@H]3[C@H](O)[C@H](OC(C)=O)[C@@]2(C)O1 [COLFORSIN] | > 30 |
| > 30 | > 30 |  | > 30 | > 30 | > 30 | > 30 | > 30 | > 30 | > 30 | > 30 | > 30 | CCN(CC)CCNC(=O)c1cc(S(C)(=O)=O)ccc1OC [TIAPRIDE] | 8.5 |
| > 30 |  | > 30 | > 30 | > 30 | > 30 | > 30 | > 30 | > 30 | > 30 | > 30 |  | CCN1CCCC1CNC(=O)c1cc(S(=O)(=O)CC)c(N)cc1OC (centres undefined) [AMISULPRIDE] |  |

| Structure (SMILES) | AC50 (Adenosine receptor A3) [µM] | AC50 [1] [µM] | AC50 [2] [µM] | AC50 [3] [µM] | AC50 [4] [µM] | AC50 [5] [µM] | AC50 [7] [µM] | AC50 (Mu-type opioid receptor) [µM] | AC50 [8] [µM] | AC50 (Progesterone receptor) [µM] | AC50 [9] [µM] | AC50 [10] [µM] | AC50 [6] [µM] |
| --- | --- | --- | --- | --- | --- | --- | --- | --- | --- | --- | --- | --- | --- |
| CC(=O)[C@@]1(O)CC[C@H]2[C@@H]3C=C(Cl)C4=CC(=O)[C@@H]5C[C@@H]5[C@]4(C)[C@H]3CC[C@@]21C [CYPROTERONE] | > 10 | > 10 | > 30 | > 10 | > 10 | > 10 | 5.32 | > 30 | > 10 | 0.003 | 16 |  | > 30 |
